# From patent US20100144890A1, “USE OF A SURFACTANT FOR THE PREPARATION OF A FORMULATION FOR THE TREATMENT OF ADIPOSE DISEASES” (priority 2007, published 2010)
# Like-named read-outs stand apart in the source and are kept apart here.
# What was measured:
# Type in all cases: cell-based
# [1] = tested on: Adipocytes (method: 3T3-L1 adherent cells); experiment: Calcein-AM cytotoxicity / cell viability assay
# Protocol: Cytotoxicity Assay in Adherent Cells (3T3-L1) using the Calcein-AM Method:
# […] […] […] Then, the wells were washed and the cells incubated with Calcein-AM (1 μM) (Molecular Probes) for 30 min. Then the fluorescence of viable cells was detected in a microtitre plate reader (TECAN Genius Pro). Using this method the uptake of Calcein-AM by viable cells is measured. Calcein-AM his hydrolysed by cellular esterases and then the fluorescence emitted by calcein is detected in the plate reader (excitation: 490 nm, emission: 515 nm)
# […] In this type of assay the higher RFU (relative fluorescent unit) correspond to viable cells.
# [2] = tested on: differentiated human primary adipocytes; experiment: LDH release cytotoxicity assay (CytoTox-ONE) in differentiated adipocytes
# Protocol: (§1) Primary human preadipocytes were obtained from Promocell (Heidelberg, Germany). The Order No is C-12731 and the Lot-No 5112201 (abdomen, person).
# (§2) Human preadipocytes cells were maintained in Preadipocyte Growth Medium (DMEM; BioWhitaker Cat: BE12-604F/U1; Lot N° 6MB0130 containing 10% heat-inactivated FCS and 1% penicillin-streptomycin) at 37° C. in a humidified atmosphere of 5% CO2. The cells were expanded in several T75 flasks to reach 60-80% confluence. To differentiate the preadipocytes (10^4 cells/well) were grown in 96 well plates to reach confluence. At this point (day 0), cells were switched to differentiation medium (DMEM, 10% FBS, 0.25 μM dexamethasone, 0.25 mM IBMX, and […] insulin) for 3 days, with one medium change in between. On day 3, the dexamethasone and IBMX was removed leaving insulin on the cells for an additional 4 days, changing the medium every 2 days. Thereafter, the cells were maintained in the original propagation DMEM, changing medium every 2-3 days until use. Plates where cells are >75% differentiated were used for experiments (day 10 post-induction). Adipocytes are round and full of easily distinguishable fat globules after 7 days of culture.
# Cytotoxicity assays: The CytoTox-ONE™ Homogeneous Membrane Integrity Assay from Promega was used to study LDH release (The Lot-No 234242/27/09/08). Differentiated adipocytes were treated with the test compounds for either 24 or 48 hours and the release of LDH detected using the fluorimetric assay CytoTox-ONE (see above) according to the manufacturer's instructions. Maximum LDH release was determined by complete lysis of cells using 0.1% Triton X-100. Control cells treated with water alone were used to determine the baseline level of LDH release (0% cell death). The fluorescence was detected in a Genius Pro apparatus using specific 96 microwells plates for fluorescence. We used excitation filters in the 530-570 nm range and emission filters in the 580-620 nm range.
# (§3) The percentages cytotoxicity by LDH release were calculated according to the manufacturer's instruction (http://www.promega.com/tbs/tb306/tb306.pdf)
# (§4) According to this calculation the spontaneous release in untreated cells may indicate some cytotoxicity in untreated cells. […] This type of calculation may induce to misinterpretations and therefore the specific cytotoxicity was calculated according to the following formula: […]
# S.C. values below 0% were considered arbitrary as 0% of substance-induced cytotoxicity.
# To confirm the cytotoxic activity of the test substance at certain concentrations, undifferentiated (24 h treatment) and differentiated human primary adipocytes the cultures were treated with the indicated dilutions during 24 h and 48 h and the release of LDH measured in the supernatants.
# [3] = tested on: Primary human preadipocytes; experiment: LDH release cytotoxicity assay (CytoTox-ONE) in undifferentiated preadipocytes
# Protocol: as §1
# as §2, with “Adipocytes are round and full of easily distinguishable fat globules after 7 days of culture.” left out
# Cytotoxicity assays: The CytoTox-ONE™ Homogeneous Membrane Integrity Assay from Promega was used to study LDH release (The Lot-No 234242/27/09/08). Differentiated adipocytes were treated with the test compounds for either 24 or 48 hours and the release of LDH detected using the fluorimetric assay CytoTox-ONE (see above) according to the manufacturer's instructions. Maximum LDH release was determined by complete lysis of cells using 0.1% Triton X-100. […] The fluorescence was detected in a Genius Pro apparatus using specific 96 microwells plates for fluorescence. […]
# as §3, §4
# [4] = Table 2, dilution 1:12800, 24 h
Molecule,"Adipocytes (Calcein-AM) 24 h, toxicity ([1]; dilution 1:50)","Adipocytes (Calcein-AM) 24 h, toxicity ([1]; dilution 1:100)","Adipocytes (Calcein-AM) 24 h, toxicity ([1]; dilution 1:200)","Adipocytes (Calcein-AM) 24 h, toxicity ([1]; dilution 1:400)","Adipocytes (Calcein-AM) 24 h, toxicity ([1]; dilution 1:6400)","Adipocytes (Calcein-AM) 24 h, toxicity ([1]; dilution 1:12800)","Adipocytes (LDH) 24 h, toxicity ([2]; Table 2, dilution 1:50, 24 h)","Adipocytes (LDH) 24 h, toxicity ([2]; Table 2, dilution 1:100, 24 h)","Adipocytes (LDH) 24 h, toxicity ([2]; Table 2, dilution 1:200, 24 h)","Adipocytes (LDH) 24 h, toxicity ([2]; Table 2, dilution 1:800, 24 h)","Adipocytes (LDH) 24 h, toxicity ([2]; Table 2, dilution 1:1600, 24 h)","Adipocytes (LDH) 24 h, toxicity ([2]; Table 2, dilution 1:3200, 24 h)","Adipocytes (LDH) 24 h, toxicity ([2]; Table 2, dilution 1:6400, 24 h)","Adipocytes (LDH) 24 h, toxicity [2, 4]",other results
CCCCCCCCCCCCOS(=O)(=O)[O-].[Na+] [sodium laurylsulfate],–,–,–,–,–,–,–,–,–,–,–,–,–,–,"potency compared with the other inventive substances ([1]; cytotoxicity on adipocytes): even more potent; Adipocytes (Calcein-AM) 6 h, toxicity ([1]; dilution 1:4000): Toxic; Adipocytes (Calcein-AM) 24 h, toxicity ([1]; dilution 1:4000): Toxic; Adipocytes (Calcein-AM) 6 h, toxicity ([1]; dilution 1:16,000): Toxic; Adipocytes (Calcein-AM) 24 h, toxicity ([1]; dilution 1:16,000): Toxic; Adipocytes (Calcein-AM) 6 h, toxicity ([1]; dilution 1:512000): Non-Toxic; Adipocytes (Calcein-AM) 24 h, toxicity ([1]; dilution 1:512000): Non-Toxic"
polyethoxylated castor oil [Test Substance 2],Toxic,Toxic,Toxic,Toxic,Non-toxic,Non-toxic,Toxic,Toxic,Toxic,Non-toxic,Non-toxic,Non-toxic,Non-toxic,Non-toxic,"Differentiated Adipocytes (LDH) 24 h, cytotoxicity ([2]; Table 1, dilution 1:512, 24 h): Toxic (56.1%); Differentiated Adipocytes (LDH) 24 h, toxicity ([2]; Table 1, dilution 1:10000, 24 h): Non-toxic; Adipocytes (LDH) 24 h, cytotoxicity ([2]; Table 2, dilution 1:400, 24 h): Toxic (43.6%); Differentiated Adipocytes (LDH) 48 h, cytotoxicity ([2]; dilution 1:512, 48 h): Toxic (100%); Differentiated Adipocytes (LDH) 48 h, cytotoxicity ([2]; dilution 1:10000, 48 h): toxic (20.3%); Preadipocytes (LDH) 24 h, cytotoxicity ([3]; dilution 1:512, 24 h treatment): Toxic (32.6%); Preadipocytes (LDH) 24 h, toxicity ([3]; dilution 1:10000, 24 h treatment): Non-toxic"
polysorbate 80 [Test Substance 1],Toxic,Toxic,Toxic,Toxic,Non-toxic,Non-toxic,Toxic,Toxic,Toxic,Toxic,Non-toxic,Non-toxic,Non-toxic,Non-toxic,"Adipocytes (Calcein-AM) 24 h, toxicity ([1]; dilution 1:800): Toxic; Adipocytes (Calcein-AM) 24 h, toxicity ([1]; dilution 1:3200): Non-toxic; Differentiated Adipocytes (LDH) 24 h, cytotoxicity [2]: Toxic (42.8%); Differentiated Adipocytes (LDH) 48 h, cytotoxicity [2]: Toxic (100%); Adipocytes (LDH) 24 h, toxicity ([2]; Table 2, dilution 1:400, 24 h): Toxic; Preadipocytes (LDH) 24 h, cytotoxicity [3]: Toxic (38.1%)"
